experiment: gradient 5% acetonitrile 3 min, to 50% in 2 min, to 85% in 15 min, held 3 min, 100 µL/min; details: column: Zorbax Extend-C18 2.1 x 50 mm; eluents: water / acetonitrile, 0.1% formic acid
In short: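 In both positive and negative ionization mode, a quadrupole time-of-flight mass spectrometer coupled to HPLC analyzed pure standards run in mixtures of ~100 molecules. The Zorbax Extend-C18 column (2.1 × 50 mm, 1.8 μm) was operated at 100 μL/min with water and acetonitrile, each containing 0.1% formic acid. The dead volume was 40 μL and the dwell volume 900 μL. Retention time came from adduct peaks that were computationally picked and individually inspected by hand.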

**Q.** For `Cc1cc(C(=O)N2CCCCC2)c2c(=O)n(CC(=O)Nc3cccc(C#N)c3)c(=O)n(C)c2n1`, which RP-LC retention time is on record?
**A.** 791 s

**Q.** With `CC1CCN(c2cc3c(cc2NC(=O)C(C)(C)C)n(C)c(=O)c(=O)n3C)CC1` as the compound, how does the RP-LC retention time read?
**A.** 1010 s

**Q.** With `Cc1nnc(-c2cn(CC(=O)NCc3cccc(Br)c3)c3ccccc23)o1` as the compound, how does the RP-LC retention time read?
**A.** 838 s

**Q.** For `O=C(c1csc(N2CCN(c3ccccc3)CC2)n1)N1CCC(N2CCCCC2)CC1`, which RP-LC retention time is on record?
**A.** 668 s

**Q.** For `CCn1ccc2cc(S(=O)(=O)N3CCC(C(=O)N4CCN(c5ncccn5)CC4)CC3)ccc21`, which RP-LC retention time is on record?
**A.** 880 s

**Q.** Which RP-LC retention time does the source give for `CCn1ccc(C(=O)N2CCC(Nc3ncnc4c3CCC4)CC2)n1` here?
**A.** 553 s

**Q.** Which RP-LC retention time does the source give for `COC(=O)c1ncn2c1C(=O)N(c1ccccc1C)C(C)(C(=O)NCc1ccccc1)C2` (centres undefined) here?
**A.** 715 s

**Q.** With `Cc1ccc(S(=O)(=O)N2CCCC(c3nc(-c4cccc(-c5ccnn5C)c4)no3)C2)cc1` (centres undefined) as the compound, how does the RP-LC retention time read?
**A.** 1140 s

**Q.** For `Cc1ccc(S(=O)(=O)N2CCCC(Cn3c(C4CC4)nc4cccnc43)C2)cc1` (centres undefined), which RP-LC retention time is on record?
**A.** 790 s

**Q.** With `COc1ccc(-c2nc3cnccn3c2Nc2ccc(C(=O)NC3CCCCC3)cc2)cc1OC` as the compound, how does the RP-LC retention time read?
**A.** 755 s

**Q.** With `CCCCOc1ccc(C(=O)NCc2ccco2)cc1` as the compound, how does the RP-LC retention time read?
**A.** 865 s

**Q.** For `CCC(C)Nc1nc2c(c(=O)n(C)c(=O)n2C)n1CC(O)COc1ccccc1` (centres undefined), which RP-LC retention time is on record?
**A.** 865 s

**Q.** For `CCOC(=O)C1=C(C)NC2=C(C(=O)C(C(=O)OC)C(C)C2)C1c1ccccc1OC` (centres undefined), which RP-LC retention time is on record?
**A.** 849 s

**Q.** For `Cn1cc(-c2ccccc2)cc1C(=O)NCc1cccs1`, which RP-LC retention time is on record?
**A.** 979 s

**Q.** Which RP-LC retention time does the source give for `Cc1sc(-c2cc(C(F)(F)F)on2)cc1S(=O)(=O)Nc1ccccc1` here?
**A.** 1130 s

**Q.** For `COc1cc(NC(=O)Cn2nc([N+](=O)[O-])cc2C)c(OC)cc1Cl`, which RP-LC retention time is on record?
**A.** 829 s

**Q.** With `Cc1occc1-c1nnc(SCC(=O)N2CCCc3ccccc32)o1` as the compound, how does the RP-LC retention time read?
**A.** 962 s

**Q.** With `CC1CCN(C(=O)Cc2nnc(-c3ccccc3)o2)CC1` as the compound, how does the RP-LC retention time read?
**A.** 770 s

**Q.** For `Cc1ccc(-c2nc(Cn3c(C)nc4onc(C)c4c3=O)c(C)o2)cc1`, which RP-LC retention time is on record?
**A.** 1170 s

**Q.** For `COC(=O)c1cc2c(=O)n(-c3nc4cc(C)c(C)cc4s3)ccc2nc1C`, which RP-LC retention time is on record?
**A.** 1420 s

**Q.** For `CCn1cc(C(=O)NC2CCN(c3ccc(=O)n(CCOc4ccccc4)n3)C2)cn1` (centres undefined), which RP-LC retention time is on record?
**A.** 692 s

**Q.** For `Cc1ccc(-c2nc(Cn3cccc3C(=O)NC3CCCC3)no2)cc1`, which RP-LC retention time is on record?
**A.** 1050 s

**Q.** Which RP-LC retention time does the source give for `Cc1noc(-c2ccc(=O)n(Cc3ccccc3F)n2)n1` here?
**A.** 794 s

**Q.** With `CCCCN(C)C(=O)c1cnc(-c2ccc(C)cc2)nc1-c1ccncc1` as the compound, how does the RP-LC retention time read?
**A.** 968 s

**Q.** Which RP-LC retention time does the source give for `CCOC(=O)c1oc2ccccc2c1NC(=O)c1ccc([N+](=O)[O-])s1` here?
**A.** 1040 s

**Q.** With `CC(C)CCNC(=O)C1(C)CN(S(=O)(=O)c2ccccc2)CC(=O)N1Cc1ccccc1` (centres undefined) as the compound, how does the RP-LC retention time read?
**A.** 973 s

**Q.** Which RP-LC retention time does the source give for `O=C(c1ccccc1)N1CCc2ccc(NS(=O)(=O)c3cccs3)cc2C1` here?
**A.** 759 s

**Q.** Which RP-LC retention time does the source give for `COc1cc2c(cc1OC)C(=O)Cc1ccc3c(c1CN(C)CC2)OCO3` here?
**A.** 672 s

**Q.** Which RP-LC retention time does the source give for `O=C1NC2(CCN(C(=O)c3cc(F)cc(F)c3)CC2)Nc2c(Cl)cccc21` here?
**A.** 760 s

**Q.** Which RP-LC retention time does the source give for `Cc1nc(-c2ccc(N3CCN(S(=O)(=O)c4cccnc4)CC3)nc2)no1` here?
**A.** 680 s

**Q.** With `O=C(N[C@H]1C[C@@H]2C[C@H]1CN2C(=O)c1ccc(Cl)s1)c1cccnc1` as the compound, how does the RP-LC retention time read?
**A.** 659 s

**Q.** Which RP-LC retention time does the source give for `Cc1cccc2c(C(=O)O)cc(N3CCN(C)CC3)nc12` here?
**A.** 596 s

**Q.** With `COc1ccc(F)cc1S(=O)(=O)N(C)CC1(C)CCOCC1` as the compound, how does the RP-LC retention time read?
**A.** 864 s

**Q.** For `Fc1cccc(-c2cc(CN3CCN(c4ncccn4)CC3)[nH]n2)c1`, which RP-LC retention time is on record?
**A.** 618 s

**Q.** With `COC(=O)c1ccccc1NC(=O)c1noc2c1CCC2` as the compound, how does the RP-LC retention time read?
**A.** 1110 s

**Q.** For `COCCNC(=O)Nc1ccc(CCc2nc3ccccc3n2C)cc1`, which RP-LC retention time is on record?
**A.** 583 s

**Q.** With `COc1ccc(Cl)cc1NC(=O)C1CCCN(S(=O)(=O)c2cc(-c3noc(C)n3)cs2)C1` (centres undefined) as the compound, how does the RP-LC retention time read?
**A.** 1080 s

**Q.** Which RP-LC retention time does the source give for `COCCn1ccc2nc(C)c(C(=O)NCc3ccc(C)o3)cc2c1=O` here?
**A.** 680 s

**Q.** Which RP-LC retention time does the source give for `O=S(=O)(c1cccc(Br)c1)N1CCc2nc(-c3ccccc3)ncc2C1` here?
**A.** 1130 s

**Q.** For `Cc1nc(N2CCC(C(=O)Nc3cc(F)ccc3F)CC2)c2c(C)c(C)oc2n1`, which RP-LC retention time is on record?
**A.** 972 s

**Q.** For `O=C(CC(c1cccs1)N1Cc2ccccc2C1=O)N1CCN(c2ccccn2)CC1` (centres undefined), which RP-LC retention time is on record?
**A.** 632 s

**Q.** With `CC(C)n1c(=O)c2ccccc2n(Cc2nc(-c3ccccc3Br)no2)c1=O` as the compound, how does the RP-LC retention time read?
**A.** 1140 s

**Q.** For `NC(=O)c1cnn(-c2cccc(F)c2)c1-n1cccc1`, which RP-LC retention time is on record?
**A.** 734 s

**Q.** Which RP-LC retention time does the source give for `COc1cccc(-n2c(N3CCCC(C(=O)NC4CC4)C3)nc3ccsc3c2=O)c1` (centres undefined) here?
**A.** 710 s

— the METLIN SMRT retention time set (Domingo-Almenara et al. 2019)
